ChEMBL document CHEMBL2346531, “Investigation of σ receptors agonist/antagonist activity through N-(6-methoxytetralin-1-yl)- and N-(6-methoxynaphthalen-1-yl)alkyl derivatives of polymethylpiperidines” (Bioorg Med Chem, 2013)
Activity calls are given as the source filed them. No cut-off for these calls is given here.

What was measured:
MCF7 [1] = experiment: Activity at sigma 2 receptor in human MCF7 cells assessed as Ca2+ mobilization by fluorescence analysis; assay type: cell-based
MCF7 [2] = experiment: Antiproliferative activity against human MCF7 cells transfected with human sigma1 receptor after 48 hrs by MTT assay; assay type: functional, cell-based; parameters: Activity: concentration or dose not given beside the values; settings: for EC50: Homo sapiens, MCF7, 48 h
MCF7 [3] = experiment: Antiproliferative activity against human MCF7 cells after 48 hrs by MTT assay; assay type: functional, cell-based; settings: for EC50: Homo sapiens, MCF7, 48 h
[4] = Selectivity ratio of Ki for sigma 2 receptor in Wistar Hannover rat liver membrane to Ki for sigma 1 receptor in Dunkin guinea pig brain membrane without cerebellum; assay type: cell membranes
[5] = Displacement of [3H]DTG from sigma 2 receptor in Wistar Hannover rat liver membrane by competition binding assay; assay type: cell membranes
[6] = molecular target: Sigma non-opioid intracellular receptor 1 (Cavia porcellus, UniProt Q60492); experiment: Displacement of [3H]pentazocine from sigma 1 receptor in Dunkin guinea pig brain membrane without cerebellum by competition binding assay; assay type: cell membranes
[7] = molecular target: Sigma non-opioid intracellular receptor 1 (Homo sapiens) (UniProt Q99720); experiment: Agonist activity at human sigma 1 receptor transfected in human MCF7 cells assessed as increase in bradykinin-triggered Ca2+ response at 1 uM pretreated for 10 mins measured every 5 secs by fluorescence analysis; assay type: cell-based
MCF7 [8] = experiment: Antagonist activity at sigma 2 receptor in human MCF7 cells assessed as effect on bradykinin-triggered Ca2+ response at 1 uM pretreated for 10 mins measured every 5 secs by fluorescence analysis; assay type: cell-based
[9] = molecular target: Sigma non-opioid intracellular receptor 1 (Homo sapiens) (UniProt Q99720); experiment: Activity at human sigma 1 receptor transfected in human MCF7 cells assessed as Ca2+ mobilization by fluorescence analysis; assay type: cell-based
MCF7 [10] = experiment: Agonist activity at sigma 2 receptor in human MCF7 cells assessed as decrease in bradykinin-induced Ca2+ response at 1 uM pretreated for 10 mins measured every 5 secs by fluorescence analysis in presence of 10 uM sigma 2 receptor antagonist, AC927; assay type: cell-based
MCF7 [11] = experiment: Agonist activity at sigma 2 receptor in human MCF7 cells assessed as decrease in bradykinin-induced Ca2+ response at 1 uM pretreated for 10 mins measured every 5 secs by fluorescence analysis; assay type: cell-based
[12] = molecular target: Sigma non-opioid intracellular receptor 1 (Homo sapiens) (UniProt Q99720); experiment: Antagonist activity at human sigma 1 receptor transfected in human MCF7 cells assessed as decrease in bradykinin-triggered Ca2+ response at 1 uM pretreated for 10 mins measured every 5 secs by fluorescence analysis in presence of 1 uM sigma 1 receptor agonist, (+)-pentazocine; assay type: cell-based
[13] = molecular target: Sigma non-opioid intracellular receptor 1 (Homo sapiens) (UniProt Q99720); experiment: Antagonist activity at human sigma 1 receptor transfected in human MCF7 cells assessed as decrease in bradykinin-triggered Ca2+ response at 1 uM pretreated for 10 mins measured every 5 secs by fluorescence analysis; assay type: cell-based
MCF7 [14] = experiment: Antagonist activity at sigma 2 receptor in human MCF7 cells assessed as effect on bradykinin-triggered Ca2+ response at 10 uM pretreated for 10 mins measured every 5 secs by fluorescence analysis; assay type: cell-based
[15] = molecular target: Sigma non-opioid intracellular receptor 1 (Homo sapiens) (UniProt Q99720); experiment: Agonist activity at human sigma 1 receptor transfected in human MCF7 cells assessed as increase in bradykinin-triggered Ca2+ response at 1 uM pretreated for 10 mins measured every 5 secs by fluorescence analysis in presence of 1 uM sigma 1 receptor antagonist, BD1063; assay type: cell-based
MCF7 [16] = experiment: Activity at sigma 2 receptor in human MCF7 cells assessed as bardykinin-triggered Ca2+ mobilization at 1 uM pretreated for 10 mins measured every 5 secs by fluorescence analysis; assay type: cell-based

Sequence of Sigma non-opioid intracellular receptor 1 (Homo sapiens) (Q99720 whole entry): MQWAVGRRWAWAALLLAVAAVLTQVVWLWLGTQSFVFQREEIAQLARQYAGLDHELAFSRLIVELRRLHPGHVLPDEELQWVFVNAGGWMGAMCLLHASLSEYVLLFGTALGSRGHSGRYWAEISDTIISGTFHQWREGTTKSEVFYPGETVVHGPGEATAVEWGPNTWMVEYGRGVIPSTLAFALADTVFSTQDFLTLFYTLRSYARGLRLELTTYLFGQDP
Sequence of Sigma non-opioid intracellular receptor 1 (Q60492 whole entry): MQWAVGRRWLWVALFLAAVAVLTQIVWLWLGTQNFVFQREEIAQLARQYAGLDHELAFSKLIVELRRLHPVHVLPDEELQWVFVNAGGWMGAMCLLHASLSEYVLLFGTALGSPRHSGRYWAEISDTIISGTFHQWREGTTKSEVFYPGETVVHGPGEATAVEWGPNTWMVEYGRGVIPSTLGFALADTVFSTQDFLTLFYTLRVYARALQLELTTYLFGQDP

Compound | EC50 (MCF7 [2]) [µM] | EC50 (MCF7 [3]) [µM] | Ratio Ki [4] | Ki [5] [µM] | Ki [6] [µM] | other results
COc1ccc2c(c1)CCCC2CCCN1[C@H](C)CCC[C@@H]1C (stereo partly drawn) | > 100 | > 100 | 0.8 | 0.0909 | 0.11 | Activity (MCF7 [1]): inactive; Activity [7]: Active; Activity (MCF7 [8]): Active; Activity [9]: inactive
COc1ccc2c(CCCCN3C(C)(C)CCCC3(C)C)cccc2c1 | > 100 | > 100 | 1 | 0.0907 | 0.0886 | 
COc1ccc2c(c1)CCCC2CCCCN1CCCCC1(C)C (stereo not drawn) | 100 | 100 | 9 | 0.0295 |  | Activity (MCF7 [2]): 14%; Activity (MCF7 [3]): 20%
COc1cccc2c1CCCC2CCCN1CCN(C2CCCCC2)CC1 (stereo not drawn) | 31.2 | 27.4 |  |  |  | 
COc1ccc2c(CCCCN3[C@H](C)CCC[C@@H]3C)cccc2c1.Cl | 100 | 100 | 0.7 | 0.0138 | 0.0185 | Activity (MCF7 [1]): inactive; Activity (MCF7 [2]): 12%; Activity (MCF7 [3]): 14%; inhibition (MCF7 [10]): inactive; Activity [7]: Active; inhibition (MCF7 [11]): Active; Activity [9]: inactive
COc1ccc2c(c1)CCCC2CCCCN1C(C)(C)CCCC1(C)C (stereo not drawn) | > 100 | > 100 | 1.9 | 0.0698 | 0.0359 | 
COc1ccc2c(CCCN3C(C)(C)CCCC3(C)C)cccc2c1 | > 100 | > 100 | 2.1 | 0.495 | 0.236 | 
COc1ccc2c(CCCN3CCCCC3(C)C)cccc2c1 | > 100 | > 100 | 0.09 | 0.094 |  | 
CN1CCN(CCc2ccc(Cl)c(Cl)c2)CC1 | 70 | > 100 |  |  |  | 
COc1ccc2c(c1)CCCC2CCCCN1[C@H](C)CCC[C@@H]1C (stereo partly drawn) | 100 | > 100 | 1.3 | 0.0111 | 0.00867 | Activity (MCF7 [1]): inactive; Activity (MCF7 [2]): 14%; inhibition [12]: inactive; inhibition [13]: Active; Activity (MCF7 [8]): Active; Activity [9]: inactive
COc1ccc2c(c1)CCCC2CCCN1C(C)(C)CCCC1(C)C (stereo not drawn) | > 100 | > 100 | 1.7 | 0.641 | 0.373 | 
Cc1ccccc1NC(=N)Nc1ccccc1C [DITOLYLGUANIDINE] |  |  |  | 0.0302 |  | 
COc1ccc2c(CCCCN3CCCCC3(C)C)cccc2c1 | 100 | 100 | 1.3 | 0.0286 |  | Activity (MCF7 [2]): 18%; Activity (MCF7 [3]): 19%
c1ccc(CCN2CCCCC2)cc1 | > 100 | > 100 |  |  |  | Activity (MCF7 [14]): Active
COc1ccc2c(CCCN3[C@H](C)CCC[C@@H]3C)cccc2c1 | > 100 | > 100 | 6.1 | 0.0454 | 0.00743 | Activity (MCF7 [1]): inactive; Activity [15]: inactive; Activity [7]: Active; Activity (MCF7 [8]): Active; Activity [9]: inactive
COc1ccc2c(c1)CCCC2CCCN1CCCCC1(C)C (stereo not drawn) | > 100 | > 100 | 0.6 | 0.115 |  | 
CC(C)=CCN1CC[C@]2(C)c3cc(O)ccc3C[C@H]1[C@H]2C [(+)-PENTAZOCINE] | > 100 | > 100 |  |  |  | Activity (MCF7 [16]): inactive
